What was measured:
Assay type in all cases: cell-based
[1] = Cell viability (cytotoxicity) CCK-8 assay on murine splenocytes; conditions: female, BALB/c, mouse, murine splenocytes (spleen lymphocytes), CCK-8 method, mean of n = 3
Experimental: (§1) Female BALB/c mice (6–8 weeks old, 20 ± 2 g) were purchased from the Department of Laboratory Animal Science (Hainan Medicinal University, China). The mice were sacrificed by cervical dislocation, and their spleens were collected in complete RPMI 1640 medium, which was minced with surgical scissors in a germ-free condition. The suspension was then filtered through a sterile sieve mesh to obtain the single cell suspension. After centrifugation (1000 rpm at 4 °C for 5 min), the resulting cells were treated with erythrocytes lysis buffer, followed by washing twice with cold phosphate-buffered saline (PBS). Then, the cells were adjusted to the concentration of 5 × 10^6 cells/mL and resuspended in RPMI 1640 medium supplemented with 10% heat-inactivated fetal bovine serum (FBS).
Cell viability of compounds 1–8 were measured using the tetrazolium salt-based CCK-8 assay according to a previously described protocol with some modifications. Spleen lymphocytes were seeded into 96-well plates at a density of 2 × 10^6 cells/mL onto 96-well plates containing 100 μL of RPMI1640 complete medium (triplicate wells). Then, the cells were treated with 100 μL of various concentrations (3 μg/mL, 6 μg/mL, 12 μg/mL, 25 μg/mL, 50 μg/mL) of isolated compounds or cyclosporine (CsA) at 37 °C with a 5% CO2 incubator for 44 h. […] The optical density was measured at 450 nm on a microplate reader.

[2] = tested on: ConA-induced T murine splenic lymphocytes; experiment: ConA-induced T-cell proliferation, immunosuppressive assay (CCK-8); conditions: Mus musculus, Splenic lymphocyte; ConA-induced murine splenic T lymphocytes in vitro, n = 3
Experimental: as §1
(§2) Compounds 1–8 were evaluated for immunosuppressive activity against the proliferation of concanavalin A (ConA)-induced T and lipopolysaccharide (LPS)-induced B murine splenic lymphocyte in vitro using a CCK-8 method according to previously reported methods. Cyclosporine A was used as a positive control.

[3] = tested on: LPS-induced B murine splenic lymphocytes; experiment: LPS-induced B-cell proliferation, immunosuppressive assay (CCK-8); conditions: Mus musculus, Splenic lymphocyte; LPS-induced murine splenic B lymphocytes in vitro, n = 3
Experimental: as §1, §2

## COC(=O)c1cc(OC)cc2oc3c(c(=O)c12)COC(C)(O)C3 (stereo not drawn) [Compound 5, Diaporchromone A]
[1]
  IC50 at 44 h: 47 µM
[2]
  IC50: 34 µM
[3]
  IC50: 117 µM

From publication PMC8235223, “Four New Chromones from the Endophytic Fungus Phomopsis asparagi DHS-48 Isolated from the Chinese Mangrove Plant Rhizophora mangle” (Marine Drugs, 2021)
